IC50 data for 10 compounds are collected here from patent publication US20100227880A1, “CHEMICAL COMPOUNDS” (priority 2006, published 2010).

pIC50: −log10 of the molar value.

The test system of this assay is HIV-1 Ba-L or HIV-1 IIIB infection of the HOS cell line (expressing hCXCR4/hCCR5/hCD4/pHIV-LTR-luciferase). Description: HOS HIV-1 Infectivity Assay. Format: cell-based. The settings on record: Human immunodeficiency virus 1, HOS cells, luciferase readout, strain not given, read-out: Activity Level. Here is the method: Compounds were profiled against two HIV-1 viruses, the M-tropic (CCR5 utilizing) Ba-L strain and the T-tropic (CXCR4 utilizing) IIIB strain. Ba-L was propagated in either peripheral blood lymphocytes or SupT1/CCR5+/CXCR4+ cells. IIIB was propagated in peripheral blood lymphocytes. Compounds were tested for their ability to block infection of the HOS cell line (expressing hCXCR4/hCCR5/hCD4/pHIV-LTR-luciferase) by either HIV-1 Ba-L or HIV-1 IIIB. Compound cytotoxicity was also examined in the absence of virus addition.
HOS cells (expressing hCXCR4/hCCR5/hCD4/pHIV-LTR-luciferase) were harvested and diluted in Dulbeccos modified Eagles media supplemented with 2% FCS to a concentration of 120,000 cells/ml. The cells were plated into 96-well plates (50 μl per well) and the plates were placed in a tissue culture incubator (370° C.; 5% CO2/95% air) for a period of 24 h.
Subsequently, 50 μl of the desired drug solution (2 times the final concentration) was added to each well and the plates were returned to the tissue culture incubator ([…]; 5% CO2/95% air) for 1 h. Following this incubation, 60 μl of diluted virus (4 times the final concentration) was added to 60 μl of 2× the final desired concentration of the compound and 100 μl this compound/virus mix was added to each well (approximately 2 million RLU per well of virus). The plates were returned to the tissue culture incubator ([…]; 5% CO2/95% air) and were incubated for a further 96 h.
Following this incubation the endpoint for the virally infected cultures was quantified following addition of Steady-Glo Luciferase assay system reagent (Promega, Madison, Wis.). Cell viability or non-infected cultures was measured using a CellTiter-Glo luminescent cell viability assay system (Promega, Madison, Wis.). All luminescent readouts are performed on a Topcount luminescence detector (Packard, Meridien, Conn.).
With `COCCN(C)Cc1c(CN(C)[C@H]2CCCc3cccnc32)nc2ccccn12` [Example 21, (8S)-N-Methyl-N-{[3-({methyl[2-(methyloxy)ethyl]amino}methyl)imidazo[1,2-a]pyridin-2-yl]methyl}-5,6,7,8-tetrahydro-8-quinolinamine], the pIC50 is 6.30 to 7.00.

In the case of `CN1CCC(N(C)Cc2c(CN(C)[C@H]3CCCc4cccnc43)nc3ccccn23)CC1` [Example 24, (8S)-N-Methyl-N-[(3-{[methyl(1-methyl-4-piperidinyl)amino]methyl}imidazo[1,2-a]pyridin-2-yl)methyl]-5,6,7,8-tetrahydro-8-quinolinamine], the pIC50 was more than 7.00. The same measure for `CCN(CC)Cc1c(CN(C)[C@H]2CCCc3cccnc32)nc2ccccn12` [Example 20, (8S)-N-({3-[(Diethylamino)methyl]imidazo[1,2-a]pyridin-2-yl}methyl)-N-methyl-5,6,7,8-tetrahydro-8-quinolinamine]: 6.30 to 7.00. For `CC(C)CNCCCc1c(CN(C)[C@H]2CCCc3cccnc32)nc2ccccn12` [Example 4, (8S)-N-Methyl-N-[(3-{3-[(2-methylpropyl)amino]propyl}imidazo[1,2-a]pyridin-2-yl)methyl]-5,6,7,8-tetrahydro-8-quinolinamine], the pIC50 is more than 7.00.

With `CN1CCN(Cc2c(CN(C)C3CCCc4cccnc43)nc3ccccn23)CC1` (stereo not shown) [Example 31, N-methyl-N-({3-[(4-methyl-1-piperazinyl)methyl]imidazo[1,2-d]pyridin-2-yl}methyl)-5,6,7,8-tetrahydro-8-quinolinamine], the pIC50 is 6.30 to 7.00. The same measure for `CN(C)C1CCN(c2ccc(-c3c(CN(C)[C@H]4CCCc5cccnc54)nc4ccccn34)cn2)C1` (stereo partly drawn) [Example 18, (8S)-N-[(3-{6-[3-(Dimethylamino)-1-pyrrolidinyl]-3-pyridinyl}imidazo[1,2-a]pyridin-2-yl)methyl]-N-methyl-5,6,7,8-tetrahydro-8-quinolinamine]: 5.00 to 6.30; for `CN(C)Cc1c(CN(C)[C@H]2CCCc3cccnc32)nc2ccccn12` [Example 6, (8S)-N-({3-[(Dimethylamino)methyl]imidazo[1,2-a]pyridin-2-yl}methyl)-N-methyl-5,6,7,8-tetrahydro-8-quinolinamine]: more than 7.00; for `CC(C)N(C)Cc1c(CN(C)[C@H]2CCCc3cccnc32)nc2ccccn12` [Example 22, (8S)-N-Methyl-N-[(3-{[methyl(1-methylethyl)amino]methyl}imidazo[1,2-a]pyridin-2-yl)methyl]-5,6,7,8-tetrahydro-8-quinolinamine]: more than 7.00. The same measure for `CN(CCC#N)Cc1c(CN(C)[C@H]2CCCc3cccnc32)nc2ccccn12` [Example 27, 3-(Methyl{[2-({methyl[(8S)-5,6,7,8-tetrahydro-8-quinolinyl]amino}methyl)imidazo[1,2-a]pyridin-3-yl]methyl}amino)propanenitrile]: more than 7.00; for `CN(Cc1nc2ccccn2c1CCCN)[C@H]1CCCc2cccnc21` [Example 2, (8S)-N-{[3-(3-Aminopropyl)imidazo[1,2-a]pyridin-2-yl]methyl}-N-methyl-5,6,7,8-tetrahydro-8-quinolinamine]: more than 7.00.
